According to patent US9011988B2, “Liquid-crystal compound, liquid-crystal composition, light absorption anisotropic film, and liquid-crystal display device” (Fujifilm Corporation, priority 2010, dated 2015):

Columns and labels:
Type in all cases: physicochemical
[1] = Maximum absorption wavelength of the dye in N-methylpyrrolidone (UV-2550 spectrophotometer); conditions: for λmax: in N-methylpyrrolidone solvent
Protocol: <Maximum Absorption Wavelength>
The maximum absorption wavelength of the dye in N-methylpyrrolidone solvent was measured with a UV-2550 spectrophotometer (made by Shimadzu Corp.).

[2] = Light resistance of light absorption anisotropic film (change in intensity of absorption)
Protocol: While being heated from room temperature to 200° C., each of the light absorption anisotropic films that had been prepared was irradiated with 10 mW of light and the light resistance was determined based on the change in the intensity of absorption.

[3] = Phase transition temperature by DSC thermal analysis and polarizing microscope observation
Protocol: <Phase Transition Temperature>
The phase transition temperature was determined by thermal analysis with a DSC measurement apparatus (made by Seiko Instruments) and by visual observation with a polarizing microscope.

[4] = Solubility in chloroform / preparation of chloroform coating liquid
Protocol: The solubility of these compounds in chloroform was measured.
Following stirring and dissolution, a liquid-crystal composition coating liquid was obtained. Each of the coating liquids was then coated on an alignment film that had been formed on a glass substrate and had been rubbed. Subsequently, the chloroform was allowed to dry naturally at room temperature, yielding individual light absorption anisotropic films. The polyvinylalcohol indicated below was employed as the alignment film.

[5] = light absorption anisotropic film irradiated with 10 mW of light while heated from room temperature to 200° C., change in intensity of absorption

| Structure (SMILES) | λmax [1] [nm] | Light resistance [2, 5] | further results |
| --- | --- | --- | --- |
| CCCCCCOc1ccc(N=Nc2ccc(C=Cc3cc(OCCOCCOCCOC)c(C=Cc4ccc(N=Nc5ccc(OCCCCCC)cc5)cc4)cc3OCCOCCOCCOC)cc2)cc1 [A-10] | 457.5 | Good |  |
| CCCCCCCCCCCCCCCCCCOc1cc(C=Cc2ccc(N=Nc3ccc(OCCCCCC)cc3)cc2)c(OC)cc1C=Cc1ccc(N=Nc2ccc(OCCCCCC)cc2)cc1 [A-9] | 460.0 | Good |  |
| CCCCCCOc1ccc(N=Nc2ccc(C=Cc3cc(OC)c(C=Cc4ccc(N=Nc5ccc(OCCCCCC)cc5)cc4)cc3OC)cc2)cc1 [A-34] | 463.4 |  | temperature range in which nematic liquid crystallinity was confirmed [3]: ≥ 247 °C |
| CCCCCCOc1ccc(/C=C/c2ccc(/C=C/c3cc(OCCOCCOCCOCCOCCOCCO)c(/C=C/c4ccc(/C=C/c5ccc(OCCCCCC)cc5)cc4)cc3OC)cc2)cc1 [Comparative Compound 2, reference compound] |  | Poor | original absorption wavelength [1]: 432.5 nm; solubility in chloroform (in words) [4]: good solubility; Light resistance ([2]; film heated from room temperature to 200° C., irradiated with 10 mW of light): poor light resistance |
| CCCCc1ccc(N=Nc2ccc(N=Nc3ccc(N=Nc4ccc(N=Nc5ccc(N=Nc6ccc(CCCC)cc6)cc5)cc4C)c(C)c3)cc2)cc1 [Comparative Compound 1] |  |  | temperature range in which nematic liquid crystallinity was confirmed [3]: ≥ 220 °C; preparation of coating liquid ([4]; 1 weight part compound in 99 weight parts of chloroform): precluding preparation of a coating liquid; solubility in chloroform (in words) [4]: almost no solubility |
| CCCCCCOc1ccc(N=Nc2ccc(C=Cc3cc(OCCOCCOCCOC)c(C=Cc4ccc(N=Nc5ccc(OCCCCCC)cc5)cc4)cc3OC)cc2)cc1 [A-3] | 463.3 | Good |  |
| CCCCCCOc1ccc(N=Nc2ccc(C=Cc3cc(OCCOCCOCCO)c(C=Cc4ccc(N=Nc5ccc(OCCCCCC)cc5)cc4)cc3OC)cc2)cc1 [A-4] | 463.8 | Good |  |
